ChEMBL document CHEMBL1159024, “Inhibitory effect of tannic acid on gastric H+,K(+)-ATPase” (J Nat Prod, 1992)
Calls of active or inactive are those of the source. The calls are words filed in the database; no cut-off is given here.

Key:
Sus scrofa [1] = species: Sus scrofa; experiment: Inhibition of H(+)/K(+) ATPase from pig gastric mucosa by non competitive-double reciprocal plot in presence of K+; format: tissue-based
[2] = Inhibition of H(+)/K(+) ATPase from pig gastric mucosa; format: tissue-based, Sus scrofa
Sus scrofa [3] = species: Sus scrofa; experiment: Inhibition of H(+)/K(+) ATPase from pig gastric mucosa by competitive-double reciprocal plot in presence of ATP; format: tissue-based
[4] = Inhibition of K+ dependent pNPPase from pig gastric mucosa; format: tissue-based, Sus scrofa

Activity (Sus scrofa [1]) | IC50 [2] | Activity (Sus scrofa [3]) | IC50 [4] | SMILES
Active | 210 nM | Active | – | O=c1oc2c(O)c(O)cc3c(=O)oc4c(O)c(O)cc1c4c23 [ELLAGIC ACID]
Active | 29 nM | Active | 410 nM | O=C(OC[C@H]1O[C@@H](OC(=O)c2cc(O)c(O)c(OC(=O)c3cc(O)c(O)c(O)c3)c2)[C@H](OC(=O)c2cc(O)c(O)c(OC(=O)c3cc(O)c(O)c(O)c3)c2)[C@@H](OC(=O)c2cc(O)c(O)c(OC(=O)c3cc(O)c(O)c(O)c3)c2)[C@@H]1OC(=O)c1cc(O)c(O)c(OC(=O)c2cc(O)c(O)c(O)c2)c1)c1cc(O)c(O)c(OC(=O)c2cc(O)c(O)c(O)c2)c1 [TANNIC ACID]
